# From patent publication US11147272B2, “Pyridone compounds and agricultural and horticultural fungicides comprising the same as active ingredients” (MITSUI CHEMICALS AGRO, INC., priority 2017, dated 2021)
# Tests used:
# Magnaporthe grisea = assay: whole plant or invertebrate; format: in vivo; conditions: for Test A control value class: class of control value
# Alternaia brassicicola = assay: Test Example C: Alternaria sooty spot on cabbage; format: in vivo; conditions: for Test C control value class: class of control value
# Description: Seeds of a test plant (cabbage variety: Shikidori) were planted and cultivated until the cotyledons extended.
# <Control Value> Control value=100{1−(n/3)}
# Puccinia recondita = assay: Test Example E: Brown rust on wheat; format: in vivo; conditions: for Test E control value class: class of control value
# Phytophthora infestans = assay: whole plant or invertebrate; format: in vivo; conditions: for Test F control value class: class of control value
# Botrytis cinerea = assay: Test Example B: Gray mold on tomato; conditions: for Test B control value class: class of control value
# Plasmopara viticola = assay: Test Example G: Downy mildew on vine; conditions: for Test G control value: 7 to 10 days after inoculation; for Test G control value class: Downy mildew on vine (Neomuscat), 2.5 ml/pot, assessed 7 to 10 days after inoculation
# [1] = tested on: Colletotrichum orbiculare; assay: Test Example H: Anthracnose on cucumber; conditions: for Test H control value: 6 to 10 days after inoculation; for Test H control value class: Anthracnose on cucumber (Sagami Hanjiro), 2.5 ml/pot, assessed 6 to 10 days after inoculation
# [2] = tested on: Blumeria graminis f. sp. hordei; assay: Test Example D: Powdery mildew on barley; conditions: for Test D control value class: class of control value
# [3] = 250 ppm drug solution sprayed on test plant
# [4] = 250 ppm drug solution sprayed (2.5 ml/pot), grape Neomuscat
# [5] = 250 ppm drug solution sprayed (2.5 ml/pot), cucumber Sagami Hanjiro
# [6] = Blast on rice, control value class
# [7] = Alternaria sooty spot on cabbage, control value class
# [8] = Brown rust on wheat, control value class
# [9] = Late blight on tomato, control value class
# [10] = Gray mold on tomato, control value class
# [11] = Downy mildew on vine, 250 ppm spray
# [12] = Anthracnose on cucumber, 250 ppm spray
# [13] = Powdery mildew on barley, control value class
# [14] = Alternaria sooty spot on cabbage
SMILES,Test A control value (Magnaporthe grisea; [3]),Test C control value (Alternaia brassicicola; [3]),Test E control value (Puccinia recondita; [3]),Test F control value (Phytophthora infestans; [3]),Test B control value (Botrytis cinerea; [3]),Test G control value (Plasmopara viticola; [4]),"Test H control value [1, 5]","Test D control value [2, 3]",Test A control value (Magnaporthe grisea; [6]),Test C control value (Alternaia brassicicola; [7]),Test E control value (Puccinia recondita; [8]),Test F control value (Phytophthora infestans; [9]),Test A control value class (Magnaporthe grisea; Blast on rice),Test C control value class (Alternaia brassicicola; [14]),Test E control value class (Puccinia recondita; Brown rust on wheat),Test F control value class (Phytophthora infestans; Late blight on tomato),Test B control value class (Botrytis cinerea; Gray mold on tomato),Test G control value class (Plasmopara viticola; 250 ppm spray),Test H control value class ([1]; 250 ppm spray),Test D control value class ([2]; Powdery mildew on barley),other results
CCn1c(-c2c(F)cc(F)cc2F)c(C)cc(I)c1=O [compound 379],L (50% or less control value),H (more than 50% control value),H (more than 50% control value),L (50% or less control value),H (more than 50% control value),L (50% or less control value),H (more than 50% control value),H (more than 50% control value),,,,,,,,,,,,,
CCN1C(=O)CCC(C)=C1c1ccc(F)cc1Cl [compound 278],,,,,,,,,L (50% or less control value),L (50% or less control value),L (50% or less control value),H (more than 50% control value),,,,,,,,,"Test B control value (Botrytis cinerea; [10]): L (50% or less control value); Test G control value (Plasmopara viticola; [11]): L (50% or less control value); Test H control value [1, 12]: H (more than 50% control value); Test D control value [2, 13]: L (50% or less control value)"
CCCc1cc(Cl)c(=O)n(C)c1-c1ccc(F)cc1C [compound 420],L (50% or less control value),L (50% or less control value),H (more than 50% control value),L (50% or less control value),H (more than 50% control value),L (50% or less control value),L (50% or less control value),H (more than 50% control value),,,,,,,,,,,,,
CCc1cc(Cl)c(=O)n(C)c1-c1ccc(F)cc1Br [compound 349],,,,,,,,,L (50% or less control value),H (more than 50% control value),H (more than 50% control value),L (50% or less control value),,,,,,,,,"Test B control value (Botrytis cinerea; [10]): H (more than 50% control value); Test G control value (Plasmopara viticola; [11]): H (more than 50% control value); Test H control value [1, 12]: L (50% or less control value); Test D control value [2, 13]: H (more than 50% control value)"
CCn1c(-c2ccc(F)cc2)c(CC(C)C)ccc1=O [compound 144],,,,,,,,,,,,,L (50% or less control value),H (more than 50% control value),H (more than 50% control value),L (50% or less control value),L (50% or less control value),H (more than 50% control value),L (50% or less control value),H (more than 50% control value),
CCn1c(-c2ccc(Cl)cc2Cl)c(CC(C)C)ccc1=O [compound 135],,,,,,,,,,,,,H (more than 50% control value),H (more than 50% control value),H (more than 50% control value),L (50% or less control value),H (more than 50% control value),H (more than 50% control value),H (more than 50% control value),H (more than 50% control value),
CCOC(C)(C)c1cc(Cl)c(=O)n(CC)c1-c1c(F)cc(OC)cc1F [compound 162],,,,,,,,,,,,,H (more than 50% control value),H (more than 50% control value),H (more than 50% control value),L (50% or less control value),H (more than 50% control value),H (more than 50% control value),H (more than 50% control value),H (more than 50% control value),
CCn1c(-c2c(F)cc(F)cc2F)c(C=O)cc(Br)c1=O [compound 364],,,,,,,,,L (50% or less control value),H (more than 50% control value),H (more than 50% control value),L (50% or less control value),,,,,,,,,"Test B control value (Botrytis cinerea; [10]): H (more than 50% control value); Test G control value (Plasmopara viticola; [11]): H (more than 50% control value); Test H control value [1, 12]: L (50% or less control value); Test D control value [2, 13]: L (50% or less control value)"
CCn1c(-c2c(F)cc(F)cc2F)c(C(C)(O)CC)cc(Cl)c1=O (centres unmarked) [compound 52],,,,,,,,,,,,,H (more than 50% control value),H (more than 50% control value),H (more than 50% control value),L (50% or less control value),H (more than 50% control value),H (more than 50% control value),H (more than 50% control value),H (more than 50% control value),
CCn1c(-c2ccc(C#N)cc2)c(C(C)(OC)C(C)C)cc(Cl)c1=O (centres unmarked) [compound 250],,,,,,,,,L (50% or less control value),L (50% or less control value),H (more than 50% control value),L (50% or less control value),,,,,,,,,"Test B control value (Botrytis cinerea; [10]): H (more than 50% control value); Test G control value (Plasmopara viticola; [11]): L (50% or less control value); Test H control value [1, 12]: L (50% or less control value); Test D control value [2, 13]: L (50% or less control value)"
CCCc1cc(Cl)c(=O)n(CC(F)F)c1-c1c(F)cc(OC)cc1F [compound 475],H (more than 50% control value),H (more than 50% control value),H (more than 50% control value),L (50% or less control value),H (more than 50% control value),H (more than 50% control value),H (more than 50% control value),H (more than 50% control value),,,,,,,,,,,,,
CCCc1ccc(=O)n(CC)c1-c1ccc(OC)cc1Br [compound 370],,,,,,,,,L (50% or less control value),H (more than 50% control value),H (more than 50% control value),H (more than 50% control value),,,,,,,,,"Test B control value (Botrytis cinerea; [10]): H (more than 50% control value); Test G control value (Plasmopara viticola; [11]): H (more than 50% control value); Test H control value [1, 12]: H (more than 50% control value); Test D control value [2, 13]: H (more than 50% control value)"
CCOC(C)(CC)c1cc(Cl)c(=O)n(C)c1-c1c(F)cc(F)cc1F (centres unmarked) [compound 509],H (more than 50% control value),L (50% or less control value),H (more than 50% control value),L (50% or less control value),L (50% or less control value),H (more than 50% control value),H (more than 50% control value),H (more than 50% control value),,,,,,,,,,,,,
CCCc1cc(Br)c(=O)n(CC)c1-c1c(F)cc(F)cc1F [compound 389],H (more than 50% control value),H (more than 50% control value),H (more than 50% control value),L (50% or less control value),H (more than 50% control value),L (50% or less control value),H (more than 50% control value),H (more than 50% control value),,,,,,,,,,,,,
CCn1c(-c2c(F)cc(OC)cc2F)c(C(C)(CC(C)C)OC)cc(Cl)c1=O (racemic) [compound 165],,,,,,,,,,,,,H (more than 50% control value),H (more than 50% control value),H (more than 50% control value),L (50% or less control value),H (more than 50% control value),H (more than 50% control value),H (more than 50% control value),H (more than 50% control value),
CCn1c(-c2ccc(C)cc2F)c(CC(C)C)cc(Cl)c1=O [compound 146],,,,,,,,,,,,,H (more than 50% control value),H (more than 50% control value),H (more than 50% control value),L (50% or less control value),H (more than 50% control value),H (more than 50% control value),L (50% or less control value),H (more than 50% control value),
